How the values were obtained:
[1] = biological target: T1, N-type CaV2.2 (Homo sapiens, UniProt Q00975); experiment: HVA calcium channel FLIPR assay, N-type (SH-SY5Y cells); assay type: cell-based; conditions: SH-SY5Y, 10 µM nifedipine present, N = 3, mean ± SEM, read-out: IC50 CaV2.2 (HVA CaVs)
T1 construct: endogenous in cells
Method: (§1) The human embryonic kidney 293 (HEK 293) cell lines (from Emmanuel Bourinet, Montpellier, France) stably expressing CaV3.2 or CaV3.3 were cultured under 5% carbon dioxide at 37 °C in Dulbecco’s Modified Eagle Medium (DMEM) Glutamax (Gibco, Life Technologies, Carlsbad, CA, USA) supplemented with 10% (v/v) fetal bovine serum (FBS), 100 U/mL penicillin, 100 μg/mL streptomycin (Gibco, Life Technologies), and 750 μg/mL geneticin (G418) (Gibco, Life Technologies). The Chinese Hamster Ovary (CHO) cell lines (Emmanuel Bourinet, Montpellier, France) expressing CaV3.1 were cultured under 5% carbon dioxide at 37 °C in Alpha Minimum Essential Media (MEM) Glutamax (Gibco, Life Technologies), supplemented with 10% (v/v) fetal bovine serum (FBS) and 300 μg/mL geneticin (G418) (Gibco, Life Technologies). The human neuroblastoma SH-SY5 Y cells (Victor Diaz, Goettingen, Germany) were cultured under 5% carbon dioxide at 37 °C in RPMI 1640 antibiotic-free medium (Invitrogen, Carlsbad, CA, USA), supplemented with 15% FBS and 2 mM GlutaMAX™ (Invitrogen). D-PBS (Gibco, Life Technologies) was used to wash the cells, and 0.25% Trypsin-EDTA (Gibco, Life Technologies) was used to detach cells from the flask surface. They were split in a ratio of 1:5 (ideally 1000 cells/cm^2) when they reached 70%–80% confluence (every 2–3 days). Transiently transfected CaV3.1HEK293 T cells were used in FLIPR Assays. HEK 293 T cells were cultured under 5% carbon dioxide at 37 °C in DMEM supplemented with 10% (v/v) FBS. D-PBS was used to wash the cells, and 0.25% Trypsin-EDTA was used to detach cells from the flask surface. The cells were split and seeded at 6 million cells per T175 flask, to reach 70%–80% confluence after 24 h. The next day, 12 μg DNA of human CaV3.1 was incubated in 900 μL serum-free DMEM with 36 μL FuGENE HD transfection reagent (Promega Corporation, Madison, WI, US) (1:3 DNA/Fugene ratio) for 20 min, and then the mixture was added into the cell flask slowly, drop by drop. After the transfection, the cells were cultured under 5% carbon dioxide at 37 °C for 24 h and then moved to a 28 °C incubator.
SH-SY5Y cells were seeded into 384-well black wall clear bottom plates at a density of 15,000 cells per well, resulting in 90%–95% confluence after 24 h. The media were then removed from the wells and replaced with 20 μL of 10% calcium 4 dye (Molecular Devices) in physiological salt solution (PSS) (containing 5.9 mM KCl, 1.4 mM MgCl2, 10 mM HEPES, 1.2 mM NaH2 PO4, 5 mM NaHCO3, 140 mM NaCl, 11.5 mM glucose, and 1.8 mM CaCl2, pH 7.4) with 0.1% BSA. […] Positive control on the first reagent plate contained 15 μL of PSS (0.1% BSA), whereas PSS (0.1% BSA) containing 1 µM CVID and 10 µM nifedipine (final concentration) was used as a negative control. The fluorescence readings were recorded and converted as described previously, and agonist containing 90 mM KCl + 5 mM CaCl2 was used in the second addition.
Data were plotted and analyzed using GraphPad Prism v7.0 (GraphPad Software Inc., San Diego, CA, USA). A four-parameter logistic Hill equation with variable Hill coefficients was fitted to the data for concentration-response curves. Data are means ± SEM of n independent experiments. Statistical analysis was performed with a paired Student’s t-test with statistical significance at p < 0.05.

[2] = system: L-type calcium channel (CaV1); experiment: HVA calcium channel FLIPR assay, L-type (SH-SY5Y cells); assay type: cell-based, human; conditions: 1 µM CVID present, N = 3, mean ± SEM, read-out: IC50 CaV1 (HVA CaVs)
Method: as §1
SH-SY5Y cells were seeded into 384-well black wall clear bottom plates at a density of 15,000 cells per well, resulting in 90%–95% confluence after 24 h. […] The fluorescence readings were recorded and converted as described previously, and agonist containing 90 mM KCl + 5 mM CaCl2 was used in the second addition.
Data were plotted and analyzed using GraphPad Prism v7.0 (GraphPad Software Inc., San Diego, CA, USA). […]

T1 sequence (Q00975 whole entry): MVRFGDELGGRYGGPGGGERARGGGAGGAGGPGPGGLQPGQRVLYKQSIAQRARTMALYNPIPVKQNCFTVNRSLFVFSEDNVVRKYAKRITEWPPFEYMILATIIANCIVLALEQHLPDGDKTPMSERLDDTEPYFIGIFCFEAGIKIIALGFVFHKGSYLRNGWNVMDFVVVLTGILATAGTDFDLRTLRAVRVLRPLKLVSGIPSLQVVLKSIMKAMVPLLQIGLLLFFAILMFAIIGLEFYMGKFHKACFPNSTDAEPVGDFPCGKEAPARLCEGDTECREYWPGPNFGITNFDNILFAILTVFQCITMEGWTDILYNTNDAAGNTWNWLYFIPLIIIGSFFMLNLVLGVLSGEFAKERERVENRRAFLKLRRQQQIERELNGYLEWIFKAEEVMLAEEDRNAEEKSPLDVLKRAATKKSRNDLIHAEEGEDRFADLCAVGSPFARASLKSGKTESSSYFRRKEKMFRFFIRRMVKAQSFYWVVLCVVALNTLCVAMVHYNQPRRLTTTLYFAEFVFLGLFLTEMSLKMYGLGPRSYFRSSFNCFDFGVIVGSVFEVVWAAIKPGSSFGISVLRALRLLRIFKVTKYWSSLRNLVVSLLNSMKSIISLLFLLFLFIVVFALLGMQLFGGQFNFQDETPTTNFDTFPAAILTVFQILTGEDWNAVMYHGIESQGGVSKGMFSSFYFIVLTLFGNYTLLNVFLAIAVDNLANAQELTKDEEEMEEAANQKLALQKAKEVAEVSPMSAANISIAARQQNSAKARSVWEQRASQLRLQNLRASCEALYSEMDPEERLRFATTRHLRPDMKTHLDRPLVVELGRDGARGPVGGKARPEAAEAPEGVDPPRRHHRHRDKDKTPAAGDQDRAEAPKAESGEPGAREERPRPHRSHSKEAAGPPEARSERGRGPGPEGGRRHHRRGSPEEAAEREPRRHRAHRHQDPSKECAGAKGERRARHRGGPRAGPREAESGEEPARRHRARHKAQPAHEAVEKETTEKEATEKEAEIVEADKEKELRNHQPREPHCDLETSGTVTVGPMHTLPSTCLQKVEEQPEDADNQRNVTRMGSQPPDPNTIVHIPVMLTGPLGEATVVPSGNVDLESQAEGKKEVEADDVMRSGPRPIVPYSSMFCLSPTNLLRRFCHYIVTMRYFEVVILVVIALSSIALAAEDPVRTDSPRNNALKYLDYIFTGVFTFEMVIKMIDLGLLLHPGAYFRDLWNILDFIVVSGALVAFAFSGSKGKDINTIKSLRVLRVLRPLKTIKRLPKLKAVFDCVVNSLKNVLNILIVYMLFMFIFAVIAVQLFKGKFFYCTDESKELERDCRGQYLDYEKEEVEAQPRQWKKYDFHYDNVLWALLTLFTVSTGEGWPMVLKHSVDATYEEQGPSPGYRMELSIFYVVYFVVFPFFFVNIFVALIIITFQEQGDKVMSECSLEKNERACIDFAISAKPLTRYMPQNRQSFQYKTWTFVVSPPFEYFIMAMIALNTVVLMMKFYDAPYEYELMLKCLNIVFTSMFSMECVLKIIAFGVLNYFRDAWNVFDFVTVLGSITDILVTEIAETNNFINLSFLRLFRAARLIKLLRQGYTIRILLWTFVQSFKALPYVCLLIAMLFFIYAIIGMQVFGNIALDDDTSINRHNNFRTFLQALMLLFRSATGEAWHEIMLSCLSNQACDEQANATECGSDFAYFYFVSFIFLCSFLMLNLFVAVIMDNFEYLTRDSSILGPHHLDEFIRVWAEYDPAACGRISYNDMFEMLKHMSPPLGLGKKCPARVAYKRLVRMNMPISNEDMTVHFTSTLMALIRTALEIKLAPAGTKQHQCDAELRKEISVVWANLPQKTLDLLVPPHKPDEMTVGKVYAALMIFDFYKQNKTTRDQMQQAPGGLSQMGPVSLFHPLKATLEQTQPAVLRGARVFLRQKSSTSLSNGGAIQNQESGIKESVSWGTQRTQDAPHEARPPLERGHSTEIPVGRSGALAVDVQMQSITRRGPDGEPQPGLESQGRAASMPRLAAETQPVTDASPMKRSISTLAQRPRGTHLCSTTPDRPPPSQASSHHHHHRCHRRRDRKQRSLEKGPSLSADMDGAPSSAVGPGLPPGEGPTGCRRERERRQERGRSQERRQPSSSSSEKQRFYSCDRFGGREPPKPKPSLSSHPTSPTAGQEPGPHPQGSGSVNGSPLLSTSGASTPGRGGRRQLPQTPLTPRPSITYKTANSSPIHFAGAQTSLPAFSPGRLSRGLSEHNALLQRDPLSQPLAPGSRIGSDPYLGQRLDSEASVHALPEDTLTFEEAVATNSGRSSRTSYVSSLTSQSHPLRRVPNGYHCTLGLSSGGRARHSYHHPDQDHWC
T1 sequence (P54284 whole entry partner): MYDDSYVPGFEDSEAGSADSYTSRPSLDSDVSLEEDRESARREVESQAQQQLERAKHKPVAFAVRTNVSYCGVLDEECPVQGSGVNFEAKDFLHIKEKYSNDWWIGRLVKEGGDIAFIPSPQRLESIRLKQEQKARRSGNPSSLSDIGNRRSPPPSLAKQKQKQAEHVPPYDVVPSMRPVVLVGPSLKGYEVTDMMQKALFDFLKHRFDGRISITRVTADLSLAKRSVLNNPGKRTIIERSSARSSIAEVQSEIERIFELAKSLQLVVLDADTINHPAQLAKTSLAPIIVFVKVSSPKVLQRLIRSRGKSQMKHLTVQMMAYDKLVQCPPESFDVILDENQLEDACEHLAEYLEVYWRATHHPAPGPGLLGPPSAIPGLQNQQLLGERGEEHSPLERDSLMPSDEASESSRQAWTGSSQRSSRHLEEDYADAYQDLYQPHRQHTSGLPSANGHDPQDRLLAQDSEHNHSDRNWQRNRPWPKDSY
T1 sequence (P54289 25-946 partner limits assumed): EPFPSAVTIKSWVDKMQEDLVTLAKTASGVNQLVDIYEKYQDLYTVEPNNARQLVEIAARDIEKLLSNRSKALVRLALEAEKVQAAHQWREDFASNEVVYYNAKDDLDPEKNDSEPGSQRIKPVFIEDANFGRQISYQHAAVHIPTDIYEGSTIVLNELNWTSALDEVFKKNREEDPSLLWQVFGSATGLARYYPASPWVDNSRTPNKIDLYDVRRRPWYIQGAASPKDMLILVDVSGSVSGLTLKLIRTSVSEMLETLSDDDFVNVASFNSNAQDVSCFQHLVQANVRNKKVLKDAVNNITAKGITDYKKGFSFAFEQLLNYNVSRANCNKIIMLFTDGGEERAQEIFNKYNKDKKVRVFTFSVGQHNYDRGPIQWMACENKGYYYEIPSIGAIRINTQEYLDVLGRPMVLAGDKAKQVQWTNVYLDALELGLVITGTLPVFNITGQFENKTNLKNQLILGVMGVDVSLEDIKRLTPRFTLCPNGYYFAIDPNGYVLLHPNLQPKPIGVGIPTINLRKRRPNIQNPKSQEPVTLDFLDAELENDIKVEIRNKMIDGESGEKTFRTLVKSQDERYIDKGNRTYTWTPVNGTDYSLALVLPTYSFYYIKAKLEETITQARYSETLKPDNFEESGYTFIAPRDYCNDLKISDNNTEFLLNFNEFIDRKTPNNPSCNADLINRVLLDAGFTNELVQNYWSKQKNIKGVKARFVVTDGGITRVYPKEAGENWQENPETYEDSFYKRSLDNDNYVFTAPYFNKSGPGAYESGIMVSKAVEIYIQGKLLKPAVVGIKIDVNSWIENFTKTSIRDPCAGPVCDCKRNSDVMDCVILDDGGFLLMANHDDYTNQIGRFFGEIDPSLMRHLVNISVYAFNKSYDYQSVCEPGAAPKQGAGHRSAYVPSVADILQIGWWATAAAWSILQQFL
T1 sequence (P54289 947-1103 partner limits assumed): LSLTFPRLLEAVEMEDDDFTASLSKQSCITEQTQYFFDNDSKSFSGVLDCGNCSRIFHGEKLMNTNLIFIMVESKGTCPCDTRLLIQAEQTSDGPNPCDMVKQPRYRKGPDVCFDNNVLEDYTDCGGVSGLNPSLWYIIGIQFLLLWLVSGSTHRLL

COC(=O)[C@H](Cc1c[nH]c2ccccc12)NC(=O)C(C)(c1c[nH]c2ccccc12)c1c[nH]c2ccccc12 [Compound 3, Methyl (2,2-di(1H-indol-3-yl)propanoyl)-L-tryptophanate]
IC50 [1]: 31.3 ± 3.4 µM
IC50 [2]: 39.8 ± 3.98 µM

Source: paper PMC6315694, “Synthesis of Pseudellone Analogs and Characterization as Novel T-type Calcium Channel Blockers” (Marine Drugs, 2018)
